Measured values from article PMC2248166, “Quantitative peptide binding motifs for 19 human and mouse MHC class I molecules derived using positional scanning combinatorial peptide libraries” (Immunome Research, 2008).
Where a SMILES comes first, the peptide text is derived from it.

These molecules were tested against HLA B*1503 (Homo sapiens, UniProt P01889, A329T/A93T/A95T/C349S/D201E/D98Y/E187L/E204Q/K202T/N87E/Q94N/R155S/R180L/S121R/S35A/V306I/V36M/Y140S/Y91S) (assay: biochemical).
Format: binding

Question: How did the IC50 turn out when `CSCC[C@H](NC(=O)[C@H](CO)NC(=O)[C@H](CCCNC(=N)N)NC(=O)[C@@H]1CCCN1C(=O)[C@H](Cc1ccccc1)NC(=O)[C@H](CCCCN)NC(=O)[C@H](CO)NC(=O)[C@H](CCCCN)NC(=O)[C@H](C)N)C(=O)O` [3102.1076] (H-AKSKFPRSM-OH) was run?
Answer: 0.26 nM

Question: With `CC[C@H](C)[C@H](NC(=O)CNC(=O)[C@H](C)NC(=O)[C@H](Cc1ccc(O)cc1)NC(=O)[C@H](CCCCN)NC(=O)[C@@H](N)CO)C(=O)N[C@@H](CC(N)=O)C(=O)N[C@H](C(=O)N[C@@H](CC(C)C)C(=O)O)[C@@H](C)CC` [3102.1077] (H-SKYAGINIL-OH) as the molecule, how does the IC50 read?
Answer: 0.27 nM

Question: `C[C@@H](O)[C@H](N)C(=O)N[C@@H](CCCCN)C(=O)N[C@@H](Cc1ccccc1)C(=O)N[C@H](C(=O)N[C@@H](CC(=O)O)C(=O)N[C@@H](Cc1ccccc1)C(=O)N[C@@H](CCC(N)=O)C(=O)N[C@@H](CC(=O)O)C(=O)N[C@@H](Cc1ccccc1)C(=O)O)[C@@H](C)O` [3102.1078] (H-TKFTDFQDF-OH) was tested. Which IC50 did it give?
Answer: 2.2 nM

Question: For `CC[C@H](C)[C@H](NC(=O)[C@H](CC(N)=O)NC(=O)[C@H](CC(N)=O)NC(=O)[C@H](Cc1ccccc1)NC(=O)[C@@H]1CCCN1C(=O)[C@H](CCCCN)NC(=O)[C@H](CCCNC(=N)N)NC(=O)[C@H](CCC(N)=O)NC(=O)[C@@H](N)Cc1ccccc1)C(=O)O` [3102.1079] (H-FQRKPFNNI-OH), which IC50 is on record?
Answer: 8.9 nM

Question: Which IC50 does the source give for `CC[C@H](C)[C@H](NC(=O)[C@H](CCCCN)NC(=O)[C@@H](N)CCCNC(=N)N)C(=O)N[C@@H](CO)C(=O)N[C@@H](CO)C(=O)N[C@@H](CCCCN)C(=O)N[C@@H](CC(N)=O)C(=O)N[C@@H](CO)C(=O)N[C@@H](CCSC)C(=O)O` [3102.1080] (H-RKISSKNSM-OH) here?
Answer: 0.11 nM

Question: `CC[C@H](C)[C@H](NC(=O)[C@H](CO)NC(=O)[C@H](CCC(N)=O)NC(=O)[C@H](CCC(N)=O)NC(=O)[C@H](CC(C)C)NC(=O)[C@H](Cc1ccccc1)NC(=O)[C@H](CC(C)C)NC(=O)[C@@H](N)C(C)C)C(=O)N[C@@H](Cc1ccccc1)C(=O)O` [3102.1081] (H-VLFLQQSIF-OH) was tested. Which IC50 did it give?
Answer: 0.61 nM

Question: `CC[C@H](C)[C@H](NC(=O)[C@H](CO)NC(=O)[C@H](CO)NC(=O)[C@H](CCC(=O)O)NC(=O)[C@H](CC(N)=O)NC(=O)[C@H](Cc1ccccc1)NC(=O)[C@@H](NC(=O)[C@H](CCC(N)=O)NC(=O)[C@@H](N)Cc1ccccc1)C(C)C)C(=O)O` [3102.1082] (H-FQVFNESSI-OH) was tested. Which IC50 did it give?
Answer: 5 nM

Question: `CC(C)C[C@H](NC(=O)[C@H](CCCCN)NC(=O)[C@H](CC(N)=O)NC(=O)[C@@H](NC(=O)[C@H](Cc1ccccc1)NC(=O)[C@H](CS)NC(=O)[C@@H](NC(=O)[C@H](CCCCN)NC(=O)[C@@H](N)CCCCN)C(C)C)C(C)C)C(=O)O` [3102.1086] (H-KKVCFVNKL-OH) was tested. Which IC50 did it give?
Answer: 4.5 nM

Question: With `CC(C)C[C@H](NC(=O)[C@H](C)NC(=O)[C@H](CCC(N)=O)NC(=O)[C@H](CCC(N)=O)NC(=O)[C@@H](NC(=O)[C@@H](N)Cc1ccccc1)[C@@H](C)O)C(=O)N[C@@H](CO)C(=O)N[C@@H](CO)C(=O)N[C@@H](Cc1ccccc1)C(=O)O` [3102.1087] (H-FTQQALSSF-OH) as the molecule, how does the IC50 read?
Answer: 6.4 nM

Question: How did the IC50 turn out when `CC[C@H](C)[C@H](NC(=O)[C@H](CC(C)C)NC(=O)[C@@H](NC(=O)[C@H](CO)NC(=O)[C@@H](NC(=O)[C@H](CCCCN)NC(=O)[C@H](C)N)[C@@H](C)O)[C@@H](C)O)C(=O)N[C@@H](Cc1ccccc1)C(=O)N[C@@H](Cc1ccccc1)C(=O)O` [3102.1088] (H-AKTSTLIFF-OH) was run?
Answer: 1.6 nM

Question: With `CSCC[C@H](NC(=O)[C@H](CC(C)C)NC(=O)[C@H](CCSC)NC(=O)[C@@H](N)Cc1ccccc1)C(=O)N[C@@H](CCC(=O)O)C(=O)N[C@H](C(=O)N[C@@H](CCSC)C(=O)N[C@@H](Cc1ccccc1)C(=O)N[C@@H](Cc1ccccc1)C(=O)O)[C@@H](C)O` [3102.1089] (H-FMLMETMFF-OH) as the molecule, how does the IC50 read?
Answer: 0.19 nM

Question: Which IC50 does the source give for `CC[C@H](C)[C@H](NC(=O)[C@@H](NC(=O)[C@@H](NC(=O)[C@H](C)NC(=O)[C@H](CCSC)NC(=O)[C@H](Cc1ccc(O)cc1)NC(=O)[C@H](C)NC(=O)[C@@H](N)CCCNC(=N)N)[C@@H](C)O)[C@@H](C)O)C(=O)N[C@@H](CC(C)C)C(=O)O` [3102.1091] (H-RAYMATTIL-OH) here?
Answer: 18 nM

Question: `CSCC[C@H](NC(=O)[C@H](C)NC(=O)[C@H](CC(C)C)NC(=O)[C@H](CO)NC(=O)[C@H](CCCCN)NC(=O)[C@@H](N)CCSC)C(=O)N[C@H](C(=O)N[C@@H](C)C(=O)N[C@@H](Cc1ccccc1)C(=O)O)[C@@H](C)O` [3102.1092] (H-MKSLAMTAF-OH) was tested. Which IC50 did it give?
Answer: 0.18 nM

Question: How did the IC50 turn out when `CC[C@H](C)[C@H](N)C(=O)N[C@@H](CCSC)C(=O)N[C@@H](C)C(=O)N[C@@H](CC(C)C)C(=O)N[C@H](C(=O)N[C@H](C(=O)N[C@@H](CO)C(=O)N[C@H](C(=O)N[C@@H](Cc1ccccc1)C(=O)O)[C@@H](C)CC)C(C)C)[C@@H](C)CC` [3102.1093] (H-IMALIVSIF-OH) was run?
Answer: 4.5 nM

Question: `CC[C@H](C)[C@H](NC(=O)[C@@H](NC(=O)[C@@H]1CCCN1C(=O)[C@H](CCC(=O)O)NC(=O)[C@H](CO)NC(=O)[C@H](CO)NC(=O)[C@H](CCSC)NC(=O)[C@@H](N)Cc1ccc(O)cc1)[C@@H](C)CC)C(=O)N[C@@H](Cc1ccccc1)C(=O)O` [3102.1094] (H-YMSSEPIIF-OH) was tested. Which IC50 did it give?
Answer: 0.3 nM

Question: Which IC50 does the source give for `CC[C@H](C)[C@H](NC(=O)[C@@H](NC(=O)[C@H](CC(N)=O)NC(=O)[C@H](CCC(=O)O)NC(=O)[C@@H]1CCCN1C(=O)[C@H](CO)NC(=O)[C@H](C)NC(=O)[C@H](CCSC)NC(=O)[C@@H](N)Cc1ccccc1)C(C)C)C(=O)O` [3102.1095] (H-FMASPENVI-OH) here?
Answer: 6.4 nM

Question: `CC[C@H](C)[C@H](NC(=O)[C@@H](NC(=O)CNC(=O)[C@H](CCC(=O)O)NC(=O)[C@@H]1CCCN1C(=O)[C@H](CCC(N)=O)NC(=O)[C@@H](N)CCCCN)C(C)C)C(=O)N[C@@H](CC(C)C)C(=O)N[C@@H](Cc1ccccc1)C(=O)O` [3102.1100] (H-KQPEGVILF-OH) was tested. Which IC50 did it give?
Answer: 3.7 nM

Question: With `C[C@@H](O)[C@H](NC(=O)[C@H](CO)NC(=O)CNC(=O)[C@H](CCCNC(=N)N)NC(=O)[C@H](CC(N)=O)NC(=O)CNC(=O)[C@@H](N)CO)C(=O)N[C@@H](CO)C(=O)N[C@@H](Cc1ccccc1)C(=O)O` [3102.1101] (H-SGNRGSTSF-OH) as the molecule, how does the IC50 read?
Answer: 25 nM

Question: How did the IC50 turn out when `CC[C@H](C)[C@H](NC(=O)[C@H](CCSC)NC(=O)[C@H](CC(=O)O)NC(=O)[C@H](CC(N)=O)NC(=O)[C@@H](NC(=O)[C@H](CCSC)NC(=O)[C@H](CCC(N)=O)NC(=O)[C@@H](N)CCCNC(=N)N)C(C)C)C(=O)N[C@@H](Cc1ccccc1)C(=O)O` [3102.1102] (H-RQMVNDMIF-OH) was run?
Answer: 1.3 nM

Question: With `N=C(N)NCCC[C@H](NC(=O)[C@H](CC(=O)O)NC(=O)[C@H](CCCCN)NC(=O)[C@H](CCC(=O)O)NC(=O)[C@H](Cc1ccccc1)NC(=O)[C@H](CCC(N)=O)NC(=O)[C@@H](N)CCCNC(=N)N)C(=O)N[C@@H](CO)C(=O)N[C@@H](Cc1ccccc1)C(=O)O` [3102.1103] (H-RQFEKDRSF-OH) as the molecule, how does the IC50 read?
Answer: 0.14 nM

Question: `CC[C@H](C)[C@H](N)C(=O)N[C@@H](CCC(N)=O)C(=O)N[C@H](C(=O)N[C@@H](CC(C)C)C(=O)N[C@@H](CC(N)=O)C(=O)NCC(=O)N[C@@H](CCCCN)C(=O)N[C@@H](Cc1c[nH]cn1)C(=O)N[C@@H](Cc1ccccc1)C(=O)O)[C@@H](C)O` [3102.1105] (H-IQTLNGKHF-OH) was tested. Which IC50 did it give?
Answer: 11 nM

Question: Which IC50 does the source give for `CC[C@H](C)[C@H](NC(=O)[C@@H](NC(=O)[C@H](CCC(=O)O)NC(=O)[C@H](CCC(=O)O)NC(=O)[C@H](CO)NC(=O)[C@H](CCSC)NC(=O)[C@@H](N)CC(C)C)[C@@H](C)O)C(=O)N[C@@H](CC(=O)O)C(=O)N[C@@H](Cc1ccccc1)C(=O)O` [3102.1106] (H-LMSEETIDF-OH) here?
Answer: 12 nM

Question: With `CC[C@H](C)[C@H](NC(=O)[C@@H](NC(=O)[C@H](CCC(=O)O)NC(=O)[C@H](Cc1ccccc1)NC(=O)[C@H](Cc1ccccc1)NC(=O)[C@H](CCCCN)NC(=O)[C@@H](N)CC(N)=O)C(C)C)C(=O)N[C@@H](Cc1ccccc1)C(=O)N[C@@H](Cc1ccccc1)C(=O)O` [3102.1109] (H-NKFFEVIFF-OH) as the molecule, how does the IC50 read?
Answer: 19 nM

Question: How did the IC50 turn out when `CC(C)C[C@H](NC(=O)[C@H](Cc1ccc(O)cc1)NC(=O)[C@H](CCC(N)=O)NC(=O)[C@H](CO)NC(=O)[C@H](CCCNC(=N)N)NC(=O)[C@H](CC(N)=O)NC(=O)[C@H](CCC(N)=O)NC(=O)[C@@H](N)CCCNC(=N)N)C(=O)N[C@@H](Cc1ccccc1)C(=O)O` [3102.1112] (H-RQNRSQYLF-OH) was run?
Answer: 0.14 nM

Question: Which IC50 does the source give for `CC[C@H](C)[C@H](NC(=O)CNC(=O)[C@H](CC(C)C)NC(=O)[C@H](CCSC)NC(=O)[C@H](CO)NC(=O)[C@@H](N)Cc1ccccc1)C(=O)N[C@@H](Cc1c[nH]c2ccccc12)C(=O)N[C@@H](Cc1ccccc1)C(=O)N[C@@H](Cc1ccccc1)C(=O)O` [3102.1113] (H-FSMLGIWFF-OH) here?
Answer: 28 nM

Question: Which IC50 does the source give for `CC(C)C[C@H](NC(=O)[C@H](Cc1ccccc1)NC(=O)[C@H](CO)NC(=O)[C@@H](N)CC(C)C)C(=O)N[C@@H](CO)C(=O)N[C@@H](CCCNC(=N)N)C(=O)N[C@H](C(=O)N[C@@H](Cc1ccccc1)C(=O)N[C@@H](Cc1ccccc1)C(=O)O)C(C)C` [3102.1115] (H-LSFLSRVFF-OH) here?
Answer: 0.33 nM

Question: `CC[C@H](C)[C@H](NC(=O)[C@H](CO)NC(=O)[C@@H](NC(=O)[C@H](CCC(N)=O)NC(=O)[C@H](CO)NC(=O)[C@H](CC(N)=O)NC(=O)[C@H](Cc1ccccc1)NC(=O)[C@H](CCCCN)NC(=O)[C@@H](N)Cc1ccccc1)C(C)C)C(=O)O` [3102.1116] (H-FKFNSQVSI-OH) was tested. Which IC50 did it give?
Answer: 1.2 nM

Question: Which IC50 does the source give for `CC(C)C[C@H](NC(=O)[C@H](CO)NC(=O)[C@H](CS)NC(=O)[C@@H](NC(=O)[C@H](Cc1ccccc1)NC(=O)[C@H](CCC(N)=O)NC(=O)[C@@H](N)CO)[C@@H](C)O)C(=O)N[C@@H](C)C(=O)N[C@H](C(=O)O)C(C)C` [3102.1117] (H-SQFTCSLAV-OH) here?
Answer: 1.5 nM

Question: Which IC50 does the source give for `CC(C)[C@H](N)C(=O)N[C@@H](CCC(=O)O)C(=O)N[C@H](C(=O)N[C@@H](CCC(=O)O)C(=O)N1CCC[C@H]1C(=O)NCC(=O)N[C@@H](CO)C(=O)N[C@@H](CO)C(=O)N[C@@H](Cc1ccccc1)C(=O)O)C(C)C` [3102.1119] (H-VEVEPGSSF-OH) here?
Answer: 1.7 nM

Question: `CC[C@H](C)[C@H](N)C(=O)N[C@@H](CCCCN)C(=O)N[C@@H](Cc1ccc(O)cc1)C(=O)N[C@@H](CCSC)C(=O)N[C@H](C(=O)NCC(=O)N[C@@H](CC(N)=O)C(=O)N[C@@H](Cc1ccccc1)C(=O)N[C@@H](CCSC)C(=O)O)[C@@H](C)CC` [3102.1120] (H-IKYMIGNFM-OH) was tested. Which IC50 did it give?
Answer: 2.2 nM
